# System: Saccharomyces cerevisiae wild type strain BY4743
# Assay: AF1 metabolite analysis (GC-MS, LC-MS) of yeast cells treated with antifungal drugs
# Format: cell-based
# Conditions: for # Compounds perturbed: 2x MIC, two hours
smiles,measurement,setting,value
C[C@@H]1[C@H](O)[C@@H](C)/C=C/C=C/C=C/C=C/C=C/C=C/C=C/[C@H](O[C@@H]2O[C@H](C)[C@@H](O)[C@H](N)[C@@H]2O)C[C@@H]2O[C@](O)(C[C@@H](O)C[C@@H](O)[C@H](O)CC[C@@H](O)C[C@@H](O)CC(=O)O[C@H]1C)C[C@H](O)[C@H]2C(=O)O [Amphoteracin B],# Compounds perturbed,P < 0.05,16
same,# Compounds perturbed,P < 0.1,21
same,Fold Change,platform GC,−0.933
same,"Fold Change, TMS mevalonic acid lactone",platform GC,−0.9767
same,"Fold Change, alanine",platform GC,−0.7773
same,"Fold Change, asparagine",platform GC,−1
same,"Fold Change, aspartic acid",platform GC,−0.9743
same,"Fold Change, campesterol",platform GC,0
same,"Fold Change, desmosterol",platform GC,0
same,"Fold Change, disaccaride1",platform GC,−1
same,"Fold Change, disaccaride2",platform GC,−0.9977
same,"Fold Change, disaccaride3",platform GC,−0.9977
same,"Fold Change, ergosterol",platform GC,2.303
same,"Fold Change, fucosterol",platform GC,−0.6553
same,"Fold Change, glutamine",platform GC,−0.9116
same,"Fold Change, glycanopyrose",platform GC,−0.958
same,"Fold Change, glycerol",platform GC,−0.815
same,"Fold Change, glycine",platform GC,0.8807
same,"Fold Change, hexadecanoic acid",platform GC,−0.2427
same,"Fold Change, iso citric acid",platform GC,−0.6183
same,"Fold Change, isoleucine",platform GC,−0.9533
same,"Fold Change, lanosterol",platform GC,−1
same,"Fold Change, leucine",platform GC,−0.9443
same,"Fold Change, lysine",platform GC,−0.3925
same,"Fold Change, malic acid",platform GC,−0.963
same,"Fold Change, mevalonic acid lactone",platform GC,−0.1276
same,"Fold Change, octadecanoic acid",platform GC,0.21
same,"Fold Change, oleic acid",platform GC,−0.4593
same,"Fold Change, ornithine2",platform GC,−1
same,"Fold Change, ornithine3",platform GC,−0.9853
same,"Fold Change, palmiteliadic acid",platform GC,0.515
same,"Fold Change, phenylalanine",platform GC,−0.9797
same,"Fold Change, phosphate",platform GC,−0.007333
same,"Fold Change, pyrimidine",platform GC,−0.185
same,"Fold Change, squalene",platform GC,−0.5745
same,"Fold Change, tetradecanoic acid",platform GC,0.07967
same,"Fold Change, threonine2",platform GC,−0.8553
same,"Fold Change, threonine3",platform GC,−0.8933
same,"Fold Change, tms glutamine3",platform GC,−0.8935
same,"Fold Change, tms lysine4",platform GC,−0.9783
same,"Fold Change, tms tyrosine2",platform GC,−0.3593
same,"Fold Change, tms tyrosine3",platform GC,−0.9473
same,"Fold Change, valine",platform GC,−0.8673
same,"Fold Change, 2-ketobutyric acid",platform nLC,−0.9992
same,"Fold Change, 2-ketoglutaric",platform nLC,8.791
same,"Fold Change, 3-indolylacetonitri",platform nLC,−0.9998
same,"Fold Change, 4-methylcatechol",platform nLC,0
same,"Fold Change, 4aminobutyrate/dimg",platform nLC,−0.1983
same,"Fold Change, 5hydroxyLtryptophan",platform nLC,0
same,"Fold Change, 6-benzylaminopurine",platform nLC,0
same,"Fold Change, DLaminoadipic acid",platform nLC,1.411
same,"Fold Change, NacetylDglucosamine",platform nLC,0
same,"Fold Change, NacetylLglutamate",platform nLC,−0.1078
same,"Fold Change, NacetylLornithine",platform nLC,0
same,"Fold Change, abscisic acid",platform nLC,0
same,"Fold Change, aconitic acid",platform nLC,0.5426
same,"Fold Change, adenine",platform nLC,0
same,"Fold Change, adenosine",platform nLC,0
same,"Fold Change, alanine",platform nLC,0.1599
same,"Fold Change, allantoic acid",platform nLC,−0.1456
same,"Fold Change, allantoin",platform nLC,3.97
same,"Fold Change, anthranilic acid",platform nLC,0
same,"Fold Change, arginine",platform nLC,−0.4885
same,"Fold Change, argininosuccinate",platform nLC,0
same,"Fold Change, asparagine",platform nLC,0.1511
same,"Fold Change, aspartic",platform nLC,0.2407
same,"Fold Change, benzoic acid",platform nLC,0
same,"Fold Change, biotin",platform nLC,1.077
same,"Fold Change, caffeic acid",platform nLC,−0.5882
same,"Fold Change, catechol",platform nLC,0
same,"Fold Change, cinnamic acid",platform nLC,0
same,"Fold Change, citricanoic/itaconi.",platform nLC,0
same,"Fold Change, citrulline",platform nLC,1659
same,"Fold Change, coumaric acid",platform nLC,0
same,"Fold Change, cytidine",platform nLC,−0.9986
same,"Fold Change, cytosine",platform nLC,0
same,"Fold Change, decanoic acid",platform nLC,−0.08716
same,"Fold Change, diaminopimelic acid",platform nLC,0
same,"Fold Change, dihydrofolic acid",platform nLC,0
same,"Fold Change, estrone",platform nLC,0
same,"Fold Change, farnesol",platform nLC,0
same,"Fold Change, folic acid",platform nLC,0
same,"Fold Change, fumaric/3m2oxobutan",platform nLC,0.4423
same,"Fold Change, gallic acid",platform nLC,0.1622
same,"Fold Change, gibberellic",platform nLC,0
same,"Fold Change, glucosamine6PO4",platform nLC,−0.9951
same,"Fold Change, glutamic/acetylseri",platform nLC,0.1414
same,"Fold Change, glutamine/lysine",platform nLC,0.07919
same,"Fold Change, guanine",platform nLC,0
same,"Fold Change, guanosine",platform nLC,1.131
same,"Fold Change, histidine",platform nLC,0
same,"Fold Change, homogentisic/uric",platform nLC,0
same,"Fold Change, hydrocortisone",platform nLC,0
same,"Fold Change, hypoxanthine",platform nLC,0.1655
same,"Fold Change, indole3pyruvic acid",platform nLC,0
same,"Fold Change, inostol/glucos/sorb",platform nLC,−0.5905
same,"Fold Change, isocitric/citric/qu",platform nLC,2.549
same,"Fold Change, jasmonic acid",platform nLC,0
same,"Fold Change, kinetin",platform nLC,0
same,"Fold Change, lactic acid",platform nLC,−0.02583
same,"Fold Change, lauric acid",platform nLC,0.1225
same,"Fold Change, leucine/isoleucine/",platform nLC,0.1319
same,"Fold Change, luteolin",platform nLC,0
same,"Fold Change, malic acid",platform nLC,0.6212
same,"Fold Change, malonic acid",platform nLC,0
same,"Fold Change, menthol*",platform nLC,−0.07013
same,"Fold Change, methionine",platform nLC,0
same,"Fold Change, nicotinic acid",platform nLC,0.3131
same,"Fold Change, nopaline",platform nLC,0.3342
same,"Fold Change, oleic acid",platform nLC,0.689
same,"Fold Change, ornithine",platform nLC,2.534
same,"Fold Change, orotic acid",platform nLC,8380
same,"Fold Change, palmitic acid",platform nLC,0.3979
same,"Fold Change, phenylalanine",platform nLC,−0.1906
same,"Fold Change, phenylpyruvic acid",platform nLC,0
same,"Fold Change, phosphoenolpyruvate",platform nLC,0
same,"Fold Change, pinitol",platform nLC,0
same,"Fold Change, pipecolic acid",platform nLC,0.08112
same,"Fold Change, porphobilinogen",platform nLC,0
same,"Fold Change, proline",platform nLC,0.4603
same,"Fold Change, pyridoxine",platform nLC,−0.1294
same,"Fold Change, retinoic acid",platform nLC,0
same,"Fold Change, salicylic/HObenzoic",platform nLC,0
same,"Fold Change, selenoDLmethionine",platform nLC,0.8515
same,"Fold Change, serine",platform nLC,0.1091
same,"Fold Change, shikimic acid",platform nLC,0
same,"Fold Change, sinapinic acid",platform nLC,0
same,"Fold Change, sorbitol/mannitol",platform nLC,0.2162
same,"Fold Change, succinic",platform nLC,0.8663
same,"Fold Change, sucrose",platform nLC,0.4493
same,"Fold Change, sugar-phosphate",platform nLC,−0.1067
same,"Fold Change, tetradecanoic acid",platform nLC,−0.07723
same,"Fold Change, threonine/homoserin",platform nLC,0.1267
same,"Fold Change, thymine",platform nLC,0
same,"Fold Change, tryptophan",platform nLC,1.142
same,"Fold Change, tyrosine",platform nLC,0.0982
same,"Fold Change, uracil",platform nLC,1.511
same,"Fold Change, uridine",platform nLC,0.1126
same,"Fold Change, urocanic acid",platform nLC,0
same,"Fold Change, valine",platform nLC,0.1624
same,"Fold Change, xanthosineDiH2O",platform nLC,0
same,"Fold Change, zeatin",platform nLC,0
same,"Fold Change, 4-aminobenzoic acid",platform pLC,0
same,"Fold Change, 4-methylcatechol",platform pLC,0
same,"Fold Change, 4ambutyrate/dimglyc",platform pLC,0.01279
same,"Fold Change, 5hydroxyLtryptophan",platform pLC,0
same,"Fold Change, 6benzylaminopurine",platform pLC,0
same,"Fold Change, DL-aminoadipic acid",platform pLC,0.4703
same,"Fold Change, NacetylDglucosamine",platform pLC,0
same,"Fold Change, NacetylLglutamate",platform pLC,0
same,"Fold Change, NacetylLornithine",platform pLC,1.319
same,"Fold Change, abscisic acid",platform pLC,0
same,"Fold Change, adenine",platform pLC,0.1153
same,"Fold Change, adenosine",platform pLC,0
same,"Fold Change, alanine/sarcosine",platform pLC,0.2602
same,"Fold Change, allantoic acid",platform pLC,0
same,"Fold Change, anthranilic acid",platform pLC,0
same,"Fold Change, arginine",platform pLC,0.4662
same,"Fold Change, argininosuccinate",platform pLC,0
same,"Fold Change, asparagine",platform pLC,0.6344
same,"Fold Change, aspartic acid",platform pLC,0.3594
same,"Fold Change, biotin",platform pLC,0
same,"Fold Change, caffeine",platform pLC,0
same,"Fold Change, citric acid TME",platform pLC,0
same,"Fold Change, citrulline",platform pLC,1.798
same,"Fold Change, cytidine",platform pLC,0
same,"Fold Change, cytosine",platform pLC,0
same,"Fold Change, diaminopimelic acid",platform pLC,0
same,"Fold Change, dihydrofolic acid",platform pLC,0
same,"Fold Change, dipicolinic acid",platform pLC,0
same,"Fold Change, folic acid",platform pLC,0
same,"Fold Change, glucosamine",platform pLC,0
same,"Fold Change, glucosamine6PO4",platform pLC,0
same,"Fold Change, glutamate",platform pLC,0.4341
same,"Fold Change, glutamine/lysine",platform pLC,0.3981
same,"Fold Change, glutathione",platform pLC,−0.03348
same,"Fold Change, guanosine",platform pLC,0.7598
same,"Fold Change, histidine",platform pLC,0
same,"Fold Change, hydrocortisone",platform pLC,0
same,"Fold Change, hypoxanthine",platform pLC,0.2057
same,"Fold Change, itaconic acid dimes",platform pLC,0
same,"Fold Change, kinetin",platform pLC,0
same,"Fold Change, leucine/isoleucine/",platform pLC,0.2746
same,"Fold Change, luteolin",platform pLC,0
same,"Fold Change, mannitol",platform pLC,0.4543
same,"Fold Change, methionine",platform pLC,0.3299
same,"Fold Change, mevalonic lactone",platform pLC,−0.4606
same,"Fold Change, niacinamide",platform pLC,0
same,"Fold Change, nicotinic acid",platform pLC,−0.9989
same,"Fold Change, nopaline",platform pLC,0
same,"Fold Change, ornithine",platform pLC,0.5049
same,"Fold Change, phenylalanine",platform pLC,0.4036
same,"Fold Change, phosphoenolpyruvate",platform pLC,0
same,"Fold Change, pipecolic acid",platform pLC,0.5237
same,"Fold Change, progesterone",platform pLC,0
same,"Fold Change, proline",platform pLC,0.6707
same,"Fold Change, pyridoxine",platform pLC,−0.1684
same,"Fold Change, riboflavin",platform pLC,0
same,"Fold Change, selenoDLmethionine",platform pLC,1.178
same,"Fold Change, serine",platform pLC,0.2011
same,"Fold Change, sugar-phosphate",platform pLC,0
same,"Fold Change, thiamine",platform pLC,0
same,"Fold Change, threonine/homoserin",platform pLC,0.3145
same,"Fold Change, thymine",platform pLC,0
same,"Fold Change, tryptophan",platform pLC,0
same,"Fold Change, tyrosine",platform pLC,0.2347
same,"Fold Change, uric acid",platform pLC,308
same,"Fold Change, urocanic acid",platform pLC,0
same,"Fold Change, xanthosine(diH2O)",platform pLC,0
same,"Fold Change, zeatin",platform pLC,0
